Values joined by “and” are separate entries in the source; they are usually repeats but may differ in a detail not shown here. Equal entries are not always repeated.
Assays:
human P2X4 = biological target: T1, human P2X4 (Homo sapiens, UniProt Q99571); assay: Human P2X4 HEK Cell FLIPR Assay; format: cell-based; conditions: agonist Bz-ATP at EC80; for Emax: HEK293, HEK293 cells, percentage of maximal inhibition, read-out: Human P2X4 HEK Cells (FLIPR Assay) avg Efficacy [%]; for IC50: HEK293 cells, individual values listed where some fall outside detection range
T1 sequence (Q99571 1-388): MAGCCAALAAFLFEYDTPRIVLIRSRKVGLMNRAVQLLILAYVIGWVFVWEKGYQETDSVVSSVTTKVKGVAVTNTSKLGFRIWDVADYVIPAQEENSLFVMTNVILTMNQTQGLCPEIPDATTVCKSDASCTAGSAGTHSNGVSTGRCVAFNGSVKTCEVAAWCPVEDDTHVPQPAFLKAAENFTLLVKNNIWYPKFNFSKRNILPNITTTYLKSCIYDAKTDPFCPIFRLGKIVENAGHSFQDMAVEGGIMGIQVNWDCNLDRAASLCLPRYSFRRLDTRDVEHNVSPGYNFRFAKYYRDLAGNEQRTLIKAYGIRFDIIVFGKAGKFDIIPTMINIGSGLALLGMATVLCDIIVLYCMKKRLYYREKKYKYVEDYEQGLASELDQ
Summary of the method: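 Calcium flux read by FLIPR for 120 sec after Bz-ATP challenge at EC80 (established each assay day), following 30 min room-temperature compound preincubation in dye-loaded stable human P2X4 HEK293 cells. Peak RFU over basal normalized to agonist control; IC50, maximal inhibition and Hill coefficient from triplicate means.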

endogenous P2X4 channels = biological target: T2, endogenous P2X4 channels (Homo sapiens, UniProt Q99571); assay: Human Monocyte P2X4 Assay (FLIPR); format: cell-based; conditions: primary human monocytes, 3 μM BzATP, one value per donor
T2 construct: measure calcium influx through endogenous P2X4 channels into primary human monocytes
T2 sequence (Q99571 1-388): T1 sequence (Q99571 1-388)
Procedure: The principle of the assay is to measure calcium influx through endogenous P2X4 channels into primary human monocytes, following activation by 2′,3′-O-(4-benzoyl-benzoyl)-ATP (Bz-ATP). Intracellular calcium concentration changes were measured with a Flipr® (Molecular Devices) device using a calcium sensitive dye (Fluo-8). In primary monocytes P2X4 is located at the lysosome membrane, therefore exocytosis has to be triggered to expose P2X4 at the cellular membrane.
Human peripheral blood mononuclear cells (PBMCs) from anticoagulated blood (blood cells, BC) were isolated via density gradient centrifugation. Whole blood was diluted 1:3 with PBS. Samples of 30 mL were layered carefully on top of 15 mL Biocoll (BIOCHROM) in 50 mL centrifuge tubes (Falcon). Tubes were centrifuged at 914×g for 25 min at RT without brake. The PBMC layer was removed with a 10 mL pipette and transferred into tubes with ice-cold PBS in a total volume of 50 mL. Cells were washed twice by pelleting at 300×g at 4° C., for 10 min and for 5 min respectively. PBMCs were re-suspended in 10 mL medium (X-vivo, Biozym Scientific) and counted in a Neubauer chamber.
Monocytes were isolated by negative selection using the Monocyte isolation kit II from Miltenyi (#130-091-153) according to the instructions. Isolation should be done fast and cells and solutions should be kept on ice at any time. PBMCs in batches of 10 exp8 cells were pelleted (300×g, 10 min) and re-suspended with 300 μL MACS buffer in a 50 mL Falcon tube. FcR Blocking reagent (100 μl) and Biotin-Ab (100 μl) were added, mixed and incubated on ice for 10 min. MACS buffer (300 μL) and anti-Biotin Micro-beads (100 μL) were added, mixed and incubated on ice for 15 min. Cells were washed by pelleting (300×g for 10 min) and re-suspended in 500 μL MACS buffer. For each batch one separation column was placed in the MACS separator and rinsed with 3 mL MACS buffer. The cell suspension was added to the column, followed by 3×3 mL MACS buffer for washing, and the eluent containing the monocytes was collected. Cells were pelleted (300×g for 10 min), re-suspended in X-vivo medium and counted. Monocytes were seeded into fibronectin-coated micro-plates (384-well, black, flat transparent bottom; Corning #3848) at a density of 30,000 cells/well in 50 μL, and cultivated over night (37° C., 5% CO2).
Test substances were dissolved in 100% DMSO at a stock concentration of 10 mM and stored at −20° C. in aliquots. Serial dilutions (2×) were prepared in DMSO and diluted 500× with assay buffer to generate the antagonist plate. In the Flipr measurement, 10 μL per well were transferred (4× dilution) and a final top concentrations of 5 μM and 0.05% DMSO were obtained in the assay. Agonist BzATP was stored at 10 mM in aliquots and diluted to an intermediate concentration of 15 μM to generate the agonist plate. In the Flipr measurement, 10 μL per well were transferred (5× dilution) so that a final assay concentration of 3 μM was obtained.
For the experiment, the medium of the cell plate was discarded manually and 70 μL/well loading buffer was added and incubated for 1 h (37° C., 5% CO2). Loading buffer contained HBSS (w/o calcium/magnesium), 10 mM Hepes pH 7.4, 5 μM Fluo-8 (AM) (Tebu-bio) and 50 mM methylamine (Sigma) to trigger exocytosis. Loading buffer was discarded manually and 30 μL/well low-calcium assay buffer (5 mM KCl, 145 mM NaCl, 0.5 mM CaCl2, 13 mM glucose, 10 mM Hepes pH 7.4) was added. The antagonist plate was transferred (10 μL/well) and after 15 min at RT the agonist plate (10 μL/well) was transferred.
Agonist addition was recorded for 240 seconds after a 10 second baseline. For analysis, a baseline correction was applied, and the maximum of the curve was extracted. Data were normalized towards 0% inhibition (signal at 3 μM BzATP) and 100% inhibition (absence of BzATP stimulation) and fitted with a four-parameter sigmoidal inhibition curve using Prism GraphPad to obtain IC50 values.

Emax (human P2X4) [%]	Human P2X4 Monocytes (FLIPR Assay) Efficacy for different donors (endogenous P2X4 channels)	Emax (endogenous P2X4 channels; read-out: Human P2X4 Monocytes (FLIPR Assay) Efficacy for different donors) [%]	IC50 (endogenous P2X4 channels; read-out: Human P2X4 Monocytes (FLIPR Assay) IC50 for different donors) [nM]	IC50 (human P2X4) [nM]	SMILES
92	77% and 88%				NS(=O)(=O)c1cc(NC(=O)Cc2ccccc2Cl)ccc1-n1cnc(Cl)n1 [Example 24, 2-(2-Chlorophenyl)-N-[4-(3-chloro-1H-1,2,4-triazol-1-yl)-3-sulfamoylphenyl]-acetamide]
85	88%				NS(=O)(=O)c1cc(NC(=O)Cc2ccccc2Cl)ccc1-n1cc(F)cn1 [Example 26, 2-(2-Chlorophenyl)-N-[4-(4-fluoro-1H-pyrazol-1-yl)-3-sulfamoylphenyl]acetamide]
90	64% and 90%				NS(=O)(=O)c1cc(NC(=O)Cc2ccccc2Cl)ccc1-n1cc(Br)cn1 [Example 28, N-[4-(4-Bromo-1H-pyrazol-1-yl)-3-sulfamoylphenyl]-2-(2-chlorophenyl)acetamide]
70	69% and 54%				COc1ccc(CC(=O)Nc2ccc(-n3cc(Cl)cn3)c(S(N)(=O)=O)c2)cc1 [Example 170, N-[4-(4-Chloro-1H-pyrazol-1-yl)-3-sulfamoylphenyl]-2-(4-methoxyphenyl)acetamide]
84	34% and 46% and 95%	49	157		NS(=O)(=O)c1cc(NC(=O)Cc2ccccc2F)cnc1-c1cnn(C(F)F)c1 [Example 321, N-{6-[1-(Difluoromethyl)-1H-pyrazol-4-yl]-5-sulfamoylpyridin-3-yl}-2-(2-fluorophenyl)acetamide]
69	32% and 107%				NS(=O)(=O)c1cc(NC(=O)Cc2ccccc2Cl)cnc1-n1cc(C(F)(F)F)cn1 [Example 380, 2-(2-Chlorophenyl)-N-{5-sulfamoyl-6-[4-(trifluoromethyl)-1H-pyrazol-1-yl]pyridin-3-yl}acetamide]
73	51%				NS(=O)(=O)c1cc(NC(=O)Cc2ccccc2Cl)cnc1-n1cc(Cl)cn1 [Example 387, 2-(2-Chlorophenyl)-N-[6-(4-chloro-1H-pyrazol-1-yl)-5-sulfamoylpyridin-3-yl]acetamide]
88				1	NS(=O)(=O)c1cc(NC(=O)Cc2ccccc2Cl)ccc1-c1ccncc1 [Example 552, 2-(2-Chlorophenyl)-N-[4-(pyridin-4-yl)-3-sulfamoylphenyl]acetamide]
82				5	NC(=O)c1cnn(-c2ccc(NC(=O)Cc3ccccc3Cl)cc2S(N)(=O)=O)c1 [Example 553, 1-(4-{[(2-Chlorophenyl)acetyl]amino}-2-sulfamoylphenyl)-1H-pyrazole-4-carboxamide]
83				383	N#Cc1cnn(-c2ccc(NC(=O)Cc3cccc(O)c3Cl)cc2S(N)(=O)=O)c1 [Example 554, 2-(2-Chloro-3-hydroxyphenyl)-N-[4-(4-cyano-1H-pyrazol-1-yl)-3-sulfamoylphenyl]acetamide]
94				22	N#Cc1cnn(-c2ccc(NC(=O)Cc3ccc(O)cc3Cl)cc2S(N)(=O)=O)c1 [Example 555, 2-(2-Chloro-4-hydroxyphenyl)-N-[4-(4-cyano-1H-pyrazol-1-yl)-3-sulfamoylphenyl]acetamide]
94				65	N#Cc1cnn(-c2ccc(NC(=O)Cc3cc(O)ccc3Cl)cc2S(N)(=O)=O)c1 [Example 556, 2-(2-Chloro-5-hydroxyphenyl)-N-[4-(4-cyano-1H-pyrazol-1-yl)-3-sulfamoylphenyl]acetamide]
89				11	N#Cc1cnn(-c2ccc(NC(=O)Cc3c(O)cccc3Cl)cc2S(N)(=O)=O)c1 [Example 557, 2-(2-Chloro-6-hydroxyphenyl)-N-[4-(4-cyano-1H-pyrazol-1-yl)-3-sulfamoylphenyl]acetamide]
75				1380	N#Cc1cnn(-c2ccc(NC(=O)C(O)c3ccccc3Cl)cc2S(N)(=O)=O)c1 (stereo not drawn) [Example 558, 2-(2-Chlorophenyl)-N-[4-(4-cyano-1H-pyrazol-1-yl)-3-sulfamoylphenyl]-2-hydroxyacetamide]

From patent US11524938B2, “Aromatic sulfonamide derivatives” (Bayer Pharma Aktiengesellschaft, priority 2016, dated 2022)
